Legend:
[1] = tested on: MKN-45 cells; assay: Induction of apoptosis in MKN-45 cells (caspase-3 activity); assay type: cell-based, human; settings: percentage induction @ 3 μM; caspase-3, MKN-45 cells, 24 h; percent of maximum response
Method: 7. Induction of Apoptosis in MKN-45 Cells: I
Induction of Caspase 3 was measured fluorimetrically. Cells were incubated with desired concentrations of the compound for 24 h. After incubation, cells were harvested and counted. An equal number of viable cells per well (0.3×10^6 cells) were used for determination of caspase-3 activity. Increase in apoptosis manifested by an elevation in caspase-3 levels was determined using a Caspase-3 kit from Millipore. Data are expressed as a percent of the maximum response (100%).
Results: The results are provided below as percentage induction @ 3 μM in Table 7.

[2] = tested on: Akt; assay: Inhibition of Akt phosphorylation in MKN-45 cells (Western blot); assay type: cell-based; settings: Homo sapiens, Table 6, 0-1000 nM
Method: (§1) 6. Inhibition of Akt Phosphorylation in MKN-45 or NCI-H441 Cells:
(§2) Akt is a serine-threonine kinase and a downstream marker regulated by c-Met kinase via the PI3K pathway. Once phosphorylated, Akt regulates several end processes including cell survival and growth. Cells were treated with 0-1000 nM of test compounds, lysed, and the proteins separated on a 10% SDS-PAGE. Following separation, proteins were transferred onto a nitrocellulose membrane and detected by chemiluminescence after incubation with […] (primary) and rabbit anti-mouse Ab (secondary). Intensity of the bands was determined using ImageJ 1.42q (NIH, USA) and normalized to Actin (loading control).
(§3) Results: The results are provided below as IC50 values in Table 6.

[3] = molecular target: T1, c-Met kinase (Homo sapiens, UniProt P08581); assay: Inhibition of c-Met kinase phosphorylation in MKN-45 cells (cell based ELISA); set-up: endogenous in cells; host or cells: MKN-45; settings: Table 4D, 1 h incubation
T1 sequence (P08581 25-1390): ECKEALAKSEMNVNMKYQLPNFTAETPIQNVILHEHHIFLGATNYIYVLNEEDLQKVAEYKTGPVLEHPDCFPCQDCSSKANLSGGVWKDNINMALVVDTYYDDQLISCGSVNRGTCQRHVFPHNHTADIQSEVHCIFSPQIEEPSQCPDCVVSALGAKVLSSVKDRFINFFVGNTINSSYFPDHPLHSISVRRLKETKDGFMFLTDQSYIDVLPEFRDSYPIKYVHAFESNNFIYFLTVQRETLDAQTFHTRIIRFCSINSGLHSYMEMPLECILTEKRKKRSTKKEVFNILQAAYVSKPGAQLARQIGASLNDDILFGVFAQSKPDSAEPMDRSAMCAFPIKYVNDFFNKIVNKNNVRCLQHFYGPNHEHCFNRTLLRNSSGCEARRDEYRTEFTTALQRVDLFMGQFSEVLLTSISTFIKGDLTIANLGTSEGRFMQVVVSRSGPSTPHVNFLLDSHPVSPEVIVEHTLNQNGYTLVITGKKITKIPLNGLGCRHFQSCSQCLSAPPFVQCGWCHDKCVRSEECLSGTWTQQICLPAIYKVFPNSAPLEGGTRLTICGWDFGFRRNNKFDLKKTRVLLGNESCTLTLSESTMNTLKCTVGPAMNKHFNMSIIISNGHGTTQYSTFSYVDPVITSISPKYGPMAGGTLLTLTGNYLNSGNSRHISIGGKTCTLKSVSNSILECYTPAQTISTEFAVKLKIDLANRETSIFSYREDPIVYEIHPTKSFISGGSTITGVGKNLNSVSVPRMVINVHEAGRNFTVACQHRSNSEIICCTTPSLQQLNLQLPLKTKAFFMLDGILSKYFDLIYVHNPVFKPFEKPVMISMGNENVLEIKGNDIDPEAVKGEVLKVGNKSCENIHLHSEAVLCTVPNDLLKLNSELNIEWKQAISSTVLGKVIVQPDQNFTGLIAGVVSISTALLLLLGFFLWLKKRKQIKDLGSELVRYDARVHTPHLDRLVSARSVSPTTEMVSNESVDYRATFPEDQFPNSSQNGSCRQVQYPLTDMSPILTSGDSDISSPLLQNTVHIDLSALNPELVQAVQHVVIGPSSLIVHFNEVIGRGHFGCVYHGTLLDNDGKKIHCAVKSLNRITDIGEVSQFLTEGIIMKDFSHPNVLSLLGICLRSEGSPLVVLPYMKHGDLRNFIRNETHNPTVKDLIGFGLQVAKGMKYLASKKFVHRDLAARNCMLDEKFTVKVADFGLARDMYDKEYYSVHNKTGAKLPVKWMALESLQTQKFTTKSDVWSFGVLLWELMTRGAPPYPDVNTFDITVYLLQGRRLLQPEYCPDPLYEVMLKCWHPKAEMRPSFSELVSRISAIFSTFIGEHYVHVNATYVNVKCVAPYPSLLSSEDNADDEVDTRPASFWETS
Method: MKN45 cells are a prototype of “c-Met addicted” cells having constitutively activated c-Met kinase similar to that observed in sub-sects of gastric or hepatocellular cancer patients with dysregulated c-Met kinase activity. Inhibition of Met phosphorylation was determined using a cell based ELISA assay according to the following schedule: • Day 1: MKN-45 cells were plated in 96-well plates in complete growth medium. • Day 2: Inhibitors at the desired concentration were added to the plates and incubated for 1 h and lysed subsequently. Lysates were transferred to NUNC Maxisorp plates coated with anti-cMet receptor antibody. Phopho-tyrosine mAb and HRP-lined anti-mouse IgG were used as primary and secondary antibodies respectively. Optical density was measured on a microplate reader (BMG Labtech., Germany) at […]. Inhibition of c-Met phosphorylation in this cell line indicates a therapeutic potential for test compounds in patients diagnosed with cancers caused by aberrant c-Met kinase signalling. Results: The results are provided above in Table 4D as IC50 values.

[4] = tested on: MKN-45; assay: Inhibition of MKN-45 proliferation (MTT); assay type: cell-based, human; settings: MKN-45 proliferation; for GI50 / inhibition at 0.1 µM: Homo sapiens, MKN-45, Table 4A; for GI50: read-out: MKN45 GI50; for inhibition at 0.1 µM: read-out: MKN45 % inhibition @ 100 nM
Outline: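 High-Met human gastric adenocarcinoma MKN-45 cells plated on day 1 and exposed to compound from day 2. Viability measured by MTT dye reduction on day 5; output given as % inhibition at 100 nM and GI50.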

[5] = molecular target: T2, human recombinant Met kinase (Homo sapiens, UniProt P08581); assay: Colorimetric determination of c-Met kinase activity (HTScan Met Kinase Assay Kit); assay type: biochemical; settings: Table 4A; 100 nM (cells without *); read-out: c-Met Enzyme % inhibition @ 100 nM
T2 construct: purchased Cell Signalling Technology, Beverly, Mass
T2 sequence (P08581 25-1390): as above
Outline: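 Human recombinant Met kinase was preincubated with compound for 5 min at room temperature, then reacted with ATP and biotinylated peptide for 30 min; EDTA stop. Phosphopeptide captured on streptavidin and detected with phospho-tyrosine mAb and europium anti-mouse IgG by time-resolved fluorescence (340/615 nm). Reported as % inhibition or IC50.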

[6] = tested on: MDA-MB-231 cells; assay: Inhibition of HGF-induced cell proliferation in MDA-MB-231 cells (MTT); assay type: cell-based; settings: Homo sapiens, Table 8, HGF (50 ng/ml)
Method: 8. Inhibition of HGF-Induced Met Phosphorylation in MDA-MB-231 Cells:
MDA-MB-231 is a breast cancer cell line having a high level of c-Met expression. Activation of Met kinase in these cells occurs only after the addition of its natural ligand, Hepatocyte Growth Factor (HGF). Upon binding to the extracellular domain of the enzyme, it triggers phosphorylation of tyrosine residues and regulates several downstream events such as cell proliferation. Cell proliferation assays were carried out using the high Met expressing cell line (MDA-MB-231) according to the following schedule: • Day 1: Cells were plated in 96-well plates in complete growth medium. • Day 2: Media was replaced with starvation medium containing 0.04% BSA. • Day 3: Inhibitors at the desired concentrations and HGF (50 ng/ml) were added. • Day 5: Cell viability was determined using the 3-[4,5-dimethylthiazol-2-yl]-2,5-diphenyltetrazolium bromide (MTT) dye reduction test. […] Results: The results are provided below in Table 8 as IC50 values.

[7] = tested on: Akt; assay: Inhibition of Akt phosphorylation in NCI-H441 cells (Western blot); assay type: cell-based; settings: Homo sapiens, Table 6, 0-1000 nM
Method: as §1, §2, §3

[8] = molecular target: T1, c-Met kinase; assay: Inhibition of c-Met kinase phosphorylation in NCI-H441 cells (cell based ELISA); settings: Table 5, 1 h incubation
Method: 5. Inhibition of c-Met Kinase Phosphorylation in NCI-H441 Cells:
Inhibition of Met phosphorylation was determined using a cell based ELISA assay according to the following schedule: • Day 1: NCI-H441 cells were plated in 96-well plates in complete growth medium. • Day 2: Inhibitors at the desired concentration were added to the plates, incubated for 1 h and lysed subsequently. Lysates were transferred to NUNC Maxisorp plates coated with anti-cMet receptor antibody. Phopho-tyrosine mAb and HRP-lined anti-mouse IgG were used as primary and secondary antibodies respectively. Optical density was measured on a microplate reader (BMG Labtech., Germany) at […]. […] Results: The results are given below in Table 5 as IC50 values.

[9] = molecular target: T2, human recombinant Met kinase; assay: Colorimetric determination of c-Met kinase activity (HTScan Met Kinase Assay Kit); assay type: biochemical; settings: Table 4A; read-out: c-Met Enzyme IC50

| SMILES | % induction of caspase-3 activity [1] | IC50 [2] [µM] | IC50 [3] [µM] | GI50 [4] [µM] | MKN45 % inhibition @ 100 nM ([4]; Table 4A, 100 nM, 0.1 µM) | inhibition at 0.1 µM [5] [%] | IC50 [6] [µM] | IC50 [7] [µM] | IC50 [8] [µM] | IC50 [9] [µM] | inhibition at 0.1 µM ([4]; 100 nM) [%] |
| --- | --- | --- | --- | --- | --- | --- | --- | --- | --- | --- | --- |
| Cc1cc(-c2ccc3nnn(Cc4ccc5ncccc5c4)c3n2)ccc1C(=O)NOCCO [Example 25, N-(2-hydroxyethoxy)-2-methyl-4-(3-(quinolin-6-ylmethyl)-3H-[1,2,3]triazolo[4,5-b]pyridin-5-yl)benzamide] | B (B is <75 and ≧50) | 0.01 to 0.025 | 0.025 to 0.05 | 0.025 to 0.05 | A (A= ≧75 to 100%) | 75 to 100 | < 0.01 | ≤ 0.01 | ≤ 0.01 | 0.025 to 0.05 |  |
| O=C(NOCCO)c1ccc(-c2ccc3nnn(Cc4ccc5ncccc5c4)c3n2)cc1Cl [Example 6, 2-chloro-N-(2-hydroxyethoxy)-4-(3-(quinolin-6-ylmethyl)-3H-[1,2,3]triazolo[4,5-b]pyridin-5-yl)benzamide] | B (B is <75 and ≧50) | 0.01 to 0.025 | 0.025 to 0.05 | 0.025 to 0.05 |  |  | < 0.01 | ≤ 0.01 | ≤ 0.01 | 0.025 to 0.05 | 75 to 100 |
| CC(C)(O)CONC(=O)c1ccc(-c2ccc3nnn(Cc4ccc5ncccc5c4)c3n2)cc1Cl [Example 30, 2-chloro-N-(2-hydroxy-2-methylpropoxy)-4-(3-(quinolin-6-ylmethyl)-3H-[1,2,3]triazolo[4,5-b]pyridin-5-yl) benzamide] | B (B is <75 and ≧50) | 0.025 to 0.05 | 0.025 to 0.05 | 0.025 to 0.05 |  | 75 to 100 | < 0.01 | ≤ 0.01 | 0.01 to 0.025 | 0.025 to 0.05 | 75 to 100 |
